Data from the METLIN SMRT retention time set (Domingo-Almenara et al. 2019).

Experiment: gradient 5% acetonitrile 3 min, to 50% in 2 min, to 85% in 15 min, held 3 min, 100 µL/min
Details: column: Zorbax Extend-C18 2.1 x 50 mm; eluents: water / acetonitrile, 0.1% formic acid
Method in brief: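 Standards, all pure, were combined into mixtures of ~100 molecules and run at 100 μL/min on a Zorbax Extend-C18 column (2.1 × 50 mm, 1.8 μm) with water and acetonitrile, each containing 0.1% formic acid. A coupled quadrupole time-of-flight mass spectrometer operated in positive and negative ionization mode. Retention time values come from computationally picked adduct peaks, each inspected manually.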

SMILES | RP-LC retention time [s]
COCCC(=O)N(C)Cc1cccnc1Oc1ccccc1 | 1060
COc1ccc(-n2c(=O)c(C(=O)Nc3ccccc3Cl)c(O)c3cccnc32)cc1 | 1270
CCCNC(=O)Cc1c(C)n(C)c2nc(-c3ccccc3)nn2c1=O | 660
O=C(NCC(c1cccnc1)c1c[nH]c2ccccc12)Nc1cccc(Br)c1 (stereo not drawn) | 714
O=C(CSc1ncn[nH]1)Nc1ccc(Cl)cc1 | 642
CCc1ccc2nc(Nc3ncc4c(n3)CC(c3cccc(Cl)c3)CC4=O)nc(C)c2c1 (stereo not drawn) | 896
CCS(=O)(=O)N1CCCC(n2c(C)cnc2-c2ccncc2)C1 (stereo not drawn) | 565
CCNC(=O)N1CCCN(S(=O)(=O)C(C)C)CC1 | 614
COc1ccc(Cl)cc1NC(=O)c1cc(C(C)C)n2nccc2n1 | 1310
CCN1C(=O)CCc2cc(NS(=O)(=O)c3ccc(C)c(F)c3)ccc21 | 800
OCCN1CCN(CCCN2c3ccccc3C=Cc3ccccc32)CC1 | 692
CCc1cc(C(=O)N2CCN(CC)CC2)nc2cc(-c3ccccn3)nn12 | 580
Cc1cc(-c2nnc(-c3ccco3)o2)c(C)n1CC(=O)Nc1cccc(Cl)c1 | 920
CCC1CCCCN1Cc1nc(Cn2ccn3nc(-c4ccccc4)cc3c2=O)no1 (stereo not drawn) | 676
CC(C)N1CCCn2cc(S(=O)(=O)Nc3cccc(OC(F)(F)F)c3)cc2C1=O | 881
COc1ccc(NC(=O)Cc2c(C)nn(-c3nc(-c4ccc(Cl)cc4)cs3)c2C)cc1 | 1210
CC(C)CCN1CCC(N2CCN(S(=O)(=O)Cc3cccc(Cl)c3)CC2)C1=O (stereo not drawn) | 699
Cc1ccc(S(=O)(=O)CCc2noc(-c3ccc4c(c3)OCO4)n2)cc1 | 931
O=C(Cn1nc2n(c1=O)CCCC2)NCCCc1ccccc1 | 709
Cc1nc(C)c(C(=O)Nc2cc(Cl)ccc2C)s1 | 837
COc1ccc(S(=O)(=O)N2CCN(CCc3cn(C)c4ncccc34)CC2)cc1Cl | 654
CC(Cc1ccco1)NC(=O)Cn1c2ccccc2c2cnn(C)c(=O)c21 (stereo not drawn) | 790

SMILES | RP-LC retention time [s]
CCCN(C)c1nccn2c(=O)n(CC(=O)Nc3ccc(F)c(Cl)c3)nc12 | 731
COc1ccc2nc3oc(C(=O)NCCN4CCN(C)CC4)cc3cc2c1 | 597
COc1ccc2c(c1)CC(C(=O)NCCCN1CCN(C3CCCCC3)CC1)CO2 (stereo not drawn) | 576
O=C(NCC1CCCO1)c1cccc(Nc2c(-c3ccccc3)nc3cnccn23)c1 (stereo not drawn) | 679
NC(=O)c1c([N+](=O)[O-])cc(C(F)(F)F)cc1[N+](=O)[O-] | 702
Cc1cccc(-c2nnc3ccc(Cl)nn23)c1 | 823
O=C(CN1CCN(Cc2ccccc2)C1=O)NCc1cccc(Cl)c1 | 822
O=C(NCCN1CCCCCC1)C1CCCN(c2nn3c(=O)c4c(nc3s2)CCCC4)C1 (stereo not drawn) | 608
CC(C)n1cnc2cc(CNC(=O)c3ccc(C#N)cc3F)ccc21 | 597
COc1cc2c(cc1OC)C(C(=O)NCc1ccc3c(c1)OCO3)C1c3ccccc3CCN1C2=O (stereo not drawn) | 788
CCCn1ccc2sc(C)c(C(=O)NCc3ccc(Cl)cc3)c2c1=O | 985
CCn1nccc1-c1cccc(-c2noc(C(NC(=O)c3ccco3)C(C)C)n2)c1 (stereo not drawn) | 973
Cc1cccc(C(=O)NCCc2cn(CC(C)C)c3ncccc23)c1 | 827
O=C(Cn1ncc2c(N3CCN(c4ccccn4)CC3)ncnc21)NCc1ccc(F)c(Cl)c1 | 628
Cc1cc(N(C)C)n2nc(-c3ccc(Cl)cc3)c(C)c2n1 | 744
O=C(Cn1c(=O)c2cc(-c3cccs3)nn2c2ncccc21)Nc1ccccc1F | 839
CS(=O)(=O)N(C1CCOCC1)C1CN(C(=O)Nc2ccccc2)C1 | 666
N[C@@H]1CCCN(c2c(/C=C3\SC(=O)NC3=O)cccc2-c2ccccc2)C1 | 772
CCOc1ccc(-c2noc(Cc3nnc(-c4ccc(F)cc4)o3)n2)cc1 | 1050
Cc1cc(C(F)(F)F)nn1CC(=O)N1CCc2nn(CC3CC3)c(=O)n2CC1 | 712
CC1(C)COc2ccc(NC(=O)c3cccc(Br)c3)cc2NC1=O | 892
Cc1ccc(C)c(Nc2c(-c3ccc(N(C)C)cc3)nc3ncccn23)c1 | 996

Results, then the compound that gave them:

RP-LC retention time [s] | SMILES
751 | Cc1nn(-c2ccccc2)cc1C(=O)N1CCC(CC(=O)NCCc2c[nH]c3ccccc23)CC1
700 | COc1ccccc1CNC(=O)C1CCN(c2nnc3c(Cl)cccn23)CC1
951 | CCC1Oc2ccc(S(=O)(=O)N3CCC(C(=O)NC4CCCCCC4)CC3)cc2NC1=O (stereo not drawn)
769 | COc1cc(C(=O)N2CCC[C@@H]2C(=O)NCc2csc(-c3ccccc3)n2)cc(OC)c1OC
948 | Cc1cc(Cl)ccc1S(=O)(=O)N1C[C@@H](F)C[C@H]1C(=O)N1CCCCC1
854 | Cc1ccc(-c2ccc3nnc(CCC(=O)NC4CCC(C)CC4)n3n2)cc1C (stereo not drawn)
903 | O=C(CCn1nnc2cc(-c3noc(-c4ccc(F)cc4)n3)ccc21)N1CCCC1
752 | CCCCNC(=O)C1CCN(c2cnn(Cc3ccccc3)c(=O)c2)CC1
740 | CCN1c2ccccc2C(=O)NC12CCN(C(=O)c1ccc3c(c1)OCO3)CC2
606 | Cc1ccc(S(=O)(=O)Cc2ccc(C(=O)N3CCN(c4ccccn4)CC3)o2)cc1
850 | CC1CCCN(C(=O)c2ccc3c(c2)Sc2ncccc2C(=O)N3C(C)C)C1 (stereo not drawn)
558 | O=C(NC1CCc2nnc(C3CC3)n2CC1)c1ccc(Cn2cncn2)o1 (stereo not drawn)
636 | CCC(C)NC(=O)N1CCN(c2cc(-c3cc(F)ccc3OC)ncn2)CC1 (stereo not drawn)
646 | CCc1ccccc1NC(=O)N1CC(Cc2nncn2C(C)C)C1
908 | CCOC(=O)c1cccc(N2C=C(C(=O)OC)S(=O)(=O)c3ccc(F)cc32)c1
661 | CCN(C(=O)Cn1c(N2CCCCC2)nc(C)cc1=O)c1ccccc1
732 | Cc1ccc(-c2ccc(N3CCCC(C(=O)NCc4ccc5c(c4)OCO5)C3)nn2)cc1 (stereo not drawn)
730 | O=C(Nc1nc(C(=O)N2CCc3ccccc32)co1)c1cccs1
1030 | CC(C)(C)c1noc(-c2ccc(-n3cnc(C(=O)N4CCCCCC4)c3)nc2)n1
640 | CCOc1ccc(C(C)NC(=O)c2cn3c(n2)CN(CC(C)C)CC3)cc1 (stereo not drawn)
688 | CCNC(=O)C1CCCN(c2nc3ncn(CC(=O)Nc4cc(F)cc(F)c4)c(=O)c3s2)C1 (stereo not drawn)
776 | CC(C)(C)c1nnc(NC(=O)C2CCN(C(=O)c3ccc(F)cc3)CC2)s1

RP-LC retention time [s] | SMILES
1020 | CCc1nc(-c2csc(S(=O)(=O)N3CCCC(C(=O)Nc4ccc(C#N)cc4)C3)c2)no1 (stereo not drawn)
1140 | COc1ccccc1C(=O)Nc1cccn2nc(C3CCC3)nc12
736 | Cc1noc(C)c1CCC(=O)N1CC(n2cc(COc3ccc(F)cc3)nn2)C1
695 | CCNC(=O)c1cc(-c2ccc(F)cc2)n[nH]1
673 | CCCNC(=O)C1CCCN(c2ccc(SCC(=O)Nc3cc(OC)cc(OC)c3)nn2)C1 (stereo not drawn)
915 | CC1CCN(S(=O)(=O)c2cc(-c3ccc(N4CCCC(C)C4)nn3)cs2)CC1 (stereo not drawn)
739 | O=C(C1CC1)N1CCCn2nc(-c3ccccc3)cc2C1
856 | CCNC(=O)N(CC(=O)N1CCc2sccc2C1COc1ccc(F)cc1)CC1CCCO1 (stereo not drawn)
588 | CN1CCN(CCNC(=O)C2CCN(c3nc4ccccc4n(C)c3=O)CC2)CC1
633 | CCOC(=O)C1CCN(C(=O)COc2ccc(NC(C)=O)cn2)CC1
572 | CCc1ccc(C(=O)N2CCC(c3nc4ccncc4n3C(C)C)C2)cc1 (stereo not drawn)
826 | COc1ccc(OC)c(NC(=O)N2C[C@@H](F)C[C@H]2C(=O)N2CCc3ccccc3C2)c1
729 | CN1c2ccccc2C(=O)NC12CCN(C(=O)Nc1ccc(F)cc1)CC2
602 | O=C(NCCN1CCCC1)c1nnc(-c2ccc(S(=O)(=O)N3CCCC3)cc2)o1
943 | CCOC(=O)c1c(S(=O)(=O)N2CCC(C(=O)Nc3ccc(CC)cc3)CC2)c(C)n(C)c1C
691 | O=C(Nc1ccc2c(c1)OCCO2)C1CCCN(c2ccnc(-c3ccc(F)cc3)n2)C1 (stereo not drawn)
976 | CCc1ccccc1NC(=O)N1CCCC1c1nc(-c2ccc(OC)cc2)no1 (stereo not drawn)
814 | CCOC(=O)c1c(C)[nH]c(C(=O)N2CCCC(C(=O)NCc3ccccc3C)C2)c1C (stereo not drawn)
695 | CCn1cnc(S(=O)(=O)N2CCC(C(=O)Nc3cccc(Cl)c3)CC2)c1
753 | Cc1cccc(NC(=O)C2CCN(C(=O)C3Sc4ccccc4NC3=O)CC2)c1C (stereo not drawn)
658 | CCN(CC)CCNC(=O)c1sc2ncn(CC(=O)N3CC(C)CC(C)C3)c(=O)c2c1C (stereo not drawn)
960 | Cc1ccc2c(c1)N(S(C)(=O)=O)CCC(C(=O)Nc1ccc(F)c(F)c1)O2 (stereo not drawn)
